# Assays:
# S1507-2 = experiment: relative IC50 (inflection point of fitted dose-response curve, CellTiter-Glo viability, 72 h; top asymptote may be below 50% inhibition); higher = less potent
# Summary of the method: (§1)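 Viability of MPNST cell lines and primary human Schwann cells was read as CellTiter-Glo ATP luminescence after 72 h at 37 °C, 5% CO2, in 384-well plates seeded with 750–1000 cells per well. Each compound had been preprinted at five concentrations in 10-fold steps. Signals were scaled between vehicle and positive-control wells, duplicates averaged where present, and fitted with four-parameter logistic curves. Drug sensitivity score and relative IC50 (censored at the top concentration) come from those fits, and percent inhibition is taken at the top concentration.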
# HSC1 [1] = experiment: as above
# Summary of the method: as §1
# ST8814 [2] = experiment: as above
# Summary of the method: as §1
# S462 = experiment: as above
# Summary of the method: as §1
# HS-Sch-2 = experiment: as above
# Summary of the method: as §1
# YST-1 = experiment: as above
# Summary of the method: as §1
# HSC2 [3] = experiment: as above
# Summary of the method: as §1
# HS-PSS [4] = experiment: as above
# Summary of the method: as §1
# STS26T [5] = experiment: as above
# Summary of the method: as §1
# HSC1 [6] = experiment: relative IC50 (inflection point of fitted dose-response curve, CellTox-Green cytotoxicity, 72 h; top asymptote may be below 50%); higher = less potent
# Summary of the method: (§2)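 MPNST cell lines and primary human Schwann cells were grown for 72 h at 37 °C in 384-well plates containing five 10-fold compound dilutions. CellTox-Green, added before seeding at a final 1:1000 dilution, gave fluorescence from DNA released by disrupted cells, and signals were scaled to vehicle and positive-control wells. Curves were fitted with a four-parameter logistic model. Drug sensitivity score and relative IC50 come from these fits, with IC50 censored at the top concentration.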
# ST8814 [7] = experiment: as above
# Summary of the method: as §2
# HSC2 [8] = experiment: as above
# Summary of the method: as §2
# HS-PSS [9] = experiment: as above
# Summary of the method: as §2
# STS26T [10] = experiment: as above
# Summary of the method: as §2
SMILES,relative IC50 (S1507-2),relative IC50 (HSC1 [1]),relative IC50 (ST8814 [2]),relative IC50 (S462),relative IC50 (HS-Sch-2),relative IC50 (YST-1),relative IC50 (HSC2 [3]),relative IC50 (HS-PSS [4]),relative IC50 (STS26T [5]),relative IC50 (HSC1 [6]),relative IC50 (ST8814 [7]),relative IC50 (HSC2 [8]),relative IC50 (HS-PSS [9]),relative IC50 (STS26T [10])
CC/C(=C(\c1ccc(O)cc1)c1ccc(OCCN(C)C)cc1)c1ccccc1 [4-hydroxytamoxifen],1470 nM,2010 nM,2390 nM,1810 nM,2060 nM,1390 nM,2490 nM,2320 nM,2540 nM,3000 nM,3310 nM,2180 nM,3410 nM,3560 nM
COc1cc(Nc2ncc3c(n2)-c2ccc(Cl)cc2C(c2c(F)cccc2OC)=NC3)ccc1C(=O)O [Alisertib],124 nM,53.4 nM,288 nM,24.8 nM,244 nM,31.1 nM,26.5 nM,1560 nM,89.6 nM,> 10000 nM,265 nM,> 10000 nM,> 10000 nM,40.4 nM
CN(C)c1nc(N(C)C)nc(N(C)C)n1 [Altretamine],> 10000 nM,> 10000 nM,> 10000 nM,> 10000 nM,> 10000 nM,> 10000 nM,> 10000 nM,> 10000 nM,> 10000 nM,> 10000 nM,> 10000 nM,> 10000 nM,> 10000 nM,> 10000 nM
CN1CC[C@H](c2c(O)cc(O)c3c(=O)cc(-c4ccccc4Cl)oc23)[C@H](O)C1 [Alvocidib],299 nM,219 nM,173 nM,170 nM,195 nM,185 nM,243 nM,120 nM,185 nM,484 nM,931 nM,304 nM,194 nM,614 nM
CC(C)c1c(C(=O)Nc2ccccc2)c(-c2ccccc2)c(-c2ccc(F)cc2)n1CC[C@@H](O)C[C@@H](O)CC(=O)O [Atorvastatin],2500 nM,319 nM,2450 nM,1280 nM,2210 nM,2320 nM,196 nM,1680 nM,2090 nM,368 nM,3270 nM,234 nM,> 10000 nM,3510 nM
O=C(O)CCCCC(CCSCc1ccccc1)SCc1ccccc1 (centres undefined) [CPI-613],> 10000 nM,> 10000 nM,> 10000 nM,> 10000 nM,> 10000 nM,,> 10000 nM,,> 10000 nM,> 10000 nM,> 10000 nM,> 10000 nM,> 10000 nM,> 10000 nM
O=NN(CCCl)C(=O)NCCCl [Carmustine],> 10000 nM,> 10000 nM,> 10000 nM,> 10000 nM,> 10000 nM,> 10000 nM,> 10000 nM,,> 10000 nM,> 10000 nM,> 10000 nM,> 10000 nM,> 10000 nM,> 10000 nM
O=P1(N(CCCl)CCCl)NCCCO1 (centres undefined) [Cyclophosphamide],> 40000 nM,> 40000 nM,> 40000 nM,> 40000 nM,> 40000 nM,> 40000 nM,> 40000 nM,> 40000 nM,> 40000 nM,> 40000 nM,> 40000 nM,> 40000 nM,> 40000 nM,> 40000 nM
Cc1c2oc3c(C)ccc(C(=O)N[C@@H]4C(=O)N[C@H](C(C)C)C(=O)N5CCC[C@H]5C(=O)N(C)CC(=O)N(C)[C@@H](C(C)C)C(=O)O[C@@H]4C)c3nc-2c(C(=O)N[C@@H]2C(=O)N[C@H](C(C)C)C(=O)N3CCC[C@H]3C(=O)N(C)CC(=O)N(C)[C@@H](C(C)C)C(=O)O[C@@H]2C)c(N)c1=O [Dactinomycin],5.95 nM,0.906 nM,3.46 nM,1.86 nM,1.95 nM,0.88 nM,0.779 nM,5.05 nM,2.08 nM,12.4 nM,49.1 nM,8.46 nM,12 nM,3.07 nM
CO[C@@H](C(=O)N1Cc2[nH]nc(NC(=O)c3ccc(N4CCN(C)CC4)cc3)c2C1)c1ccccc1 [Danusertib],641 nM,759 nM,1200 nM,389 nM,529 nM,57.8 nM,968 nM,1270 nM,1230 nM,2690 nM,1170 nM,2390 nM,2630 nM,744 nM
Cc1nc(Nc2ncc(C(=O)Nc3c(C)cccc3Cl)s2)cc(N2CCN(CCO)CC2)n1 [Dasatinib],53.8 nM,48.7 nM,43.9 nM,41.3 nM,84.9 nM,16.8 nM,81.7 nM,,25.8 nM,> 1000 nM,29.4 nM,> 1000 nM,> 1000 nM,52 nM
CCc1cnn2c(NCc3ccc[n+]([O-])c3)cc(N3CCCC[C@H]3CCO)nc12 [Dinaciclib],25.9 nM,21.6 nM,29.5 nM,6.5 nM,8.55 nM,7.48 nM,13.6 nM,10.1 nM,12.7 nM,84.2 nM,36.4 nM,43.9 nM,7.72 nM,8.71 nM
COc1cc([C@@H]2c3cc4c(cc3[C@@H](O[C@@H]3O[C@@H]5CO[C@@H](C)O[C@H]5[C@H](O)[C@H]3O)[C@H]3COC(=O)[C@H]23)OCO4)cc(OC)c1O [Etoposide],1490 nM,658 nM,1930 nM,833 nM,1120 nM,175 nM,241 nM,1300 nM,1210 nM,3130 nM,3230 nM,1420 nM,,896 nM
CO[C@H]1C[C@@H]2CC[C@@H](C)[C@@](O)(O2)C(=O)C(=O)N2CCCC[C@H]2C(=O)O[C@H]([C@H](C)C[C@@H]2CC[C@@H](OCCO)[C@H](OC)C2)CC(=O)[C@H](C)/C=C(\C)[C@@H](O)[C@@H](OC)C(=O)[C@H](C)C[C@H](C)/C=C/C=C/C=C/1C [Everolimus],1.46 nM,0.12 nM,0.32 nM,0.537 nM,,5.94 nM,0.239 nM,,0.14 nM,> 100 nM,> 100 nM,> 100 nM,> 100 nM,> 100 nM
COc1cc2c(Oc3ccc(NC(=O)C4(C(=O)Nc5ccc(F)cc5)CC4)cc3F)ccnc2cc1OCCCN1CCOCC1 [Foretinib],138 nM,238 nM,142 nM,257 nM,378 nM,275 nM,256 nM,,209 nM,> 1000 nM,288 nM,> 1000 nM,,311 nM
CCOC(=O)CCNc1cc(N2CCc3ccccc3CC2)nc(-c2ccccn2)n1 [GSK-J4],6510 nM,4680 nM,5900 nM,3740 nM,4520 nM,4300 nM,4570 nM,6010 nM,5270 nM,23700 nM,15500 nM,23700 nM,27200 nM,14800 nM
COc1cc2ncnc(Nc3ccc(F)c(Cl)c3)c2cc1OCCCN1CCOCC1 [Gefitinib],3600 nM,2940 nM,3560 nM,4160 nM,1900 nM,987 nM,2690 nM,1780 nM,3770 nM,> 10000 nM,2950 nM,> 10000 nM,> 10000 nM,3930 nM
CC(C)C[C@H](NC(=O)[C@@H](COC(C)(C)C)NC(=O)[C@H](Cc1ccc(O)cc1)NC(=O)[C@H](CO)NC(=O)[C@H](Cc1c[nH]c2ccccc12)NC(=O)[C@H](Cc1cnc[nH]1)NC(=O)[C@@H]1CCC(=O)N1)C(=O)N[C@@H](CCCNC(=N)N)C(=O)N1CCC[C@H]1C(=O)NNC(N)=O [Goserelin],> 10000 nM,> 10000 nM,> 10000 nM,> 10000 nM,,> 10000 nM,> 10000 nM,> 10000 nM,> 10000 nM,> 10000 nM,> 10000 nM,> 10000 nM,> 10000 nM,> 10000 nM
CO[C@@]12[C@H](COC(N)=O)C3=C(C(=O)C(C)=C(N)C3=O)N1C[C@@H]1N[C@@H]12 [Mitomycin C],3790 nM,3330 nM,3760 nM,3690 nM,3950 nM,2190 nM,3650 nM,,3590 nM,2870 nM,3080 nM,1060 nM,> 10000 nM,2850 nM
O=C1c2c(O)ccc(O)c2C(=O)c2c(NCCNCCO)ccc(NCCNCCO)c21 [Mitoxantrone],244 nM,164 nM,292 nM,213 nM,87.4 nM,56.6 nM,89.1 nM,194 nM,366 nM,> 1000 nM,384 nM,> 1000 nM,> 1000 nM,380 nM
COc1cccc2cc(-c3nc([C@H]4CC[C@H](C(=O)O)CC4)n4ncnc(N)c34)[nH]c12 [OSI-027],631 nM,712 nM,883 nM,608 nM,3470 nM,788 nM,1150 nM,3800 nM,1810 nM,> 10000 nM,> 10000 nM,> 10000 nM,> 10000 nM,> 10000 nM
COC1=CC(c2cc3ccccc3[nH]2)=N/C1=C\c1[nH]c(C)cc1C [Obatoclax],1900 nM,1370 nM,2880 nM,1960 nM,1590 nM,1230 nM,1360 nM,1990 nM,2330 nM,2220 nM,2870 nM,2100 nM,> 10000 nM,2960 nM
Cc1ccc([N+](=O)[O-])cc1S(=O)(=O)N(C)/N=C/c1cnc2ccc(Br)cn12 [PIK-75],275 nM,175 nM,212 nM,186 nM,,,161 nM,,143 nM,299 nM,567 nM,330 nM,,160 nM
CC(=O)c1c(C)c2cnc(Nc3ccc(N4CCNCC4)cn3)nc2n(C2CCCC2)c1=O [Palbociclib],987 nM,268 nM,1740 nM,855 nM,1940 nM,1350 nM,286 nM,1700 nM,1340 nM,> 10000 nM,> 10000 nM,> 10000 nM,> 10000 nM,> 10000 nM
O=C(CCCCCCC(=O)Nc1ccc([C@H]2O[C@@H](CSc3nc(-c4ccccc4)c(-c4ccccc4)o3)C[C@@H](c3ccc(CO)cc3)O2)cc1)NO [Tubacin],3190 nM,3280 nM,2970 nM,3160 nM,2800 nM,2010 nM,2970 nM,1470 nM,3310 nM,> 10000 nM,3070 nM,> 10000 nM,,3190 nM

# Reference: the supplement of paper PMC5579334
